Reference: patent publication US5637570A, “Disubstituted and trisubstituted derivatives of 2,3:4,6-di-O-isopropylidene-α-L-xylo-2-hexulofuranosonic acid having anti-cancer, anti-inflammatory and anti-proliferative activity” (Chemora Pharmochem, priority 1995, dated 1997)
Like-named read-outs stand apart in the source and are kept apart here.

What was measured:
[1] = test system: mouse spleen cell (T-lymphocyte); test: Concanavalin A (CON-A) assay, mouse spleen cell mitogen induced blastogenesis; type: cell-based; conditions: Anti-inflammatory/Anti-proliferative Activity
Description: iii Concanavalin A assay (the mouse spleen cell mitogen induced blastogenesis).
(§1) The MLR assay measures the effects of a study compound on the activation and antigen presentation of T-lymphocytes, therefore determining immunomodulatory properties. The mouse spleen cell mitogen-induced blastogenesis and the BUD-8 human fibroblast proliferation assays measure the effects of the compounds of the present invention on cellular proliferation of cells involved in the pathogenesis of autoimmune diseases. These two assays are appropriate as screens to ascertain anti-inflammatory and/or autoimmune diseases.
It is known that the induction and maintenance of most inflammatory diseases are typically due to the unrestricted activity of T-lymphocytes. Therefore, it is advantageous to identify compounds which are modulators of T-lymphocyte activity for eventual use in the regulation of inflammatory diseases, including acquired immune deficiency syndrome, psoriasis, systemic lupus, erythromatosus, and rheumatoid arthritis.
(§2) The detailed experimental procedure for the above-mentioned assays is described in detail in U.S. Pat. Nos. 5,360,790 and 5,367,062 incorporated herein by reference.

[2] = test system: BUD-8 human fibroblast; test: BUD-8 human cell line fibroblast proliferation assay (FIB.); type: cell-based; conditions: Anti-inflammatory/Anti-proliferative Activity
Description: ii BUD-8 human cell line fibroblast proliferation assay.
as §1
The skin cell fibroblast line, BUD-8, was originally derived from the normal skin of a person and can now be obtained from the American Type Culture Collection, Rockville, Md.
as §2

[3] = test system: human tumor cell lines (approximately 60); test: NCI in vitro human tumor cell line screen (SRB), mean graph midpoints over all cell lines; type: cell-based; conditions: for CC50 / GI50 / IC (TGI): Homo sapiens, average of all cell lines, 48 h; for CC50: 50% cell death (-50% growth), read-out: log10 LC50 mean graph midpoint (converted); for IC (TGI): total cell growth inhibition (0% growth), read-out: log10 TGI mean graph midpoint (converted); for in vitro activity in words: various in vitro cell lines, IC50, average GI50, mean graph pattern
Description: In performing in vitro human tumor cell line assay, a total of approximately 60 human tumor cell lines derived from ten cancer types (leukemia, non-small cell lung cancer, small cell lung cancer, colon cancer, CNS cancer, melanoma, ovarian cancer, renal cancer, breast cancer and prostate cancer) were used in this assay. Compounds were tested at different concentrations against every cell line. All lines are inoculated into a series of standard 96-well microtiter plates on day 0, in the majority of cases at 20,000 cells/well, and then pre-incubated in the absence of testing agent for 24 hours. A testing agent was then added in five 10-fold dilutions and incubated for a further period of 48 hours. Following this, the cells are fixed in situ, washed, and dried. Sulforhodamine B (SRB, protein binding dye) is added, followed by further washing and drying of the stained adherent cell mass. The bound stain is solubilized and measured spectrophotometrically on an automatic plate reader.
For each compound, dose response curves for each cell line were measured with five different drug concentrations, and the concentration causing 50% cell growth inhibition (GI50), total cell growth inhibition (TGI, 0% growth), and 50% cell death (LC50, -50% growth) compared with the control was calculated. […] In these graphs, the mean logarithmic value of GI50 in all cell lines for each tested compound is used as the midpoint of that bar graph.

[4] = test system: T cells (splenic T cell proliferation, co-cultured spleen cells from two strains of mice); test: Mixed lymphocyte response (MLR); type: cell-based; conditions: Mus musculus, Anti-inflammatory/Anti-proliferative Activity
Description: i Mixed lymphocyte response (MLR).
as §1
The MLR is a classical assay used to measure T cell function by studying the proliferation response of T cells which are activated in vitro by genetically disparate stimulator cells. This is accomplished by co-culturing spleen cells from two different strains of mice. Splenic T cell proliferation occurs as a result of cellular activation signals generated by the ongoing cellular interactions.
as §2

[5] = test system: COLO 205 Colon Tumor Xenografts; test: Early Stage SC COLO 205 Colon Tumor Xenografts; conditions: for Drug Deaths: of 6 mice; for Opt. % T/C: >40 considered inactive
Description: (§3) In this in vivo model Murine or human tumor fragments (30 mg) are implanted subcutaneously into the axillary region of pathogen-free immunocompetent or immunodefficient mice, respectively, on experimental day 0. Test agent treatment is initiated either on the day which is historically associated with the start of tumor growth, or when the tumor is palpable. Tumor size and body weights are obtained approximately two times per week. Tumor weights are calculated from caliper measurements of tumor dimensions in mm using the formula for a prolate ellipsoid:
(§4) (L×W^2)/2; where L is the longer of the 2 measurements
(§5) Generally, tumor size is monitored until an upper weight limit of 500 mg is attained.

[6] = test system: UACC-62 Melanoma Xenografts; test: Early Stage Subcutaneous Tumor Model UACC-62 Melanoma Xenografts; conditions: for Drug Deaths: of 6 mice; for Opt. % T/C: >40 considered inactive
Description: as §3, §4, §5

[7] = test system: P388 Murine Leukemia; test: P388 Murine Leukemia in vivo
Description: Two of the compounds of the present invention (Ic and Im) were also tested against P388 Murine Leukemia.

[8] = test system: SK-MEL-28 Melanoma Xenografts; test: Early Stage SK-MEL-28 Melanoma Xenografts; conditions: for Drug Deaths: of 6 mice; for Opt. % T/C: >40 considered inactive
Description: as §3, §4, §5

[9] = 50% cell growth inhibition, read-out: GI50 (average)
[10] = log10 of molar concentration, read-out: log10 I50 (log10 GI50 mean graph midpoint) (converted)
[11] = 200 mg/kg/dose IP Q4D × 3, day 7
[12] = 134 mg/kg/dose IP Q4D × 3, day 6
[13] = 200 mg/kg/dose IP Q4D × 3, day 6
[14] = Ic 60, 40 and 27 mg/kg/dose, Im 120, 80 and 54 mg/kg/dose
[15] = 200 mg/kg/dose IP QD × 5, day 3

`CCCCCCCCCCCCOC[C@@]12O[C@@H](CN3CCCC3)[C@@H](O)[C@@H]1OC(C)(C)O2` [Ia, 2,3-O-Isopropylidene-6-deoxy-6-(1-pyrrolidinyl)-1-O-dodecyl-α-L-xylo-2-hexulofuranose] was tested, and the IC50 [1] was < 1 µM, the IC50 [2] was < 3 µM and the CC50 [3] was 13.2 µM. It also gave a GI50 [3, 9] of 4.21 µM, a GI50 [3, 10] of 0.204 µM and an IC (TGI) [3] of 4.37 µM. For the same compound, the IC50 [4] was < 1 µM.

In the case of `CCCCCCCCCCCCOC[C@@]12O[C@@H](CN3CCOCC3)[C@@H](O)[C@@H]1OC(C)(C)O2` [Ic, 2,3-O-Isopropylidene-6-deoxy-6-(1-morpholinyl)-1-O-dodecyl-α-L-xylo-2-hexulofuranose], the “Drug Deaths” value ([5]; 90 mg/kg/dose IP Q4D × 3, day 7) is reported as 0, the “Drug Deaths” value ([5]; 134 mg/kg/dose IP Q4D × 3, day 7) is reported as 1 and the “Opt. % T/C” value ([5]; 134 mg/kg/dose IP Q4D × 3, day 7, optimum on day 29) is reported as 40%. For the same compound, the “Opt. % T/C” value [5, 11] was “Toxic”, the “Drug Deaths” value [5, 11] was 6 and the “Opt. % T/C” value ([5]; Ic 90 mg/kg/dose IP Q4D × 3, day 7, optimum on day 36) was 43%. The IC50 [1] was 10.3 µM, the IC50 [2] was 14.8 µM and the “Drug Deaths” value ([6]; 90 mg/kg/dose IP Q4D × 3, day 6) was 0. For the same compound, the “Opt. % T/C” value ([6]; 90 mg/kg/dose IP Q4D × 3, day 6, optimum on day 16) was 39%, the “Opt. % T/C” value [6, 12] was “Toxic” and the “Drug Deaths” value [6, 12] was 6. For the same compound, the “Opt. % T/C” value [6, 13] was “Toxic”, the “Drug Deaths” value [6, 13] was 6 and the CC50 [3] was 56.2 µM. For the same compound, the GI50 [3, 9] was 31.6 µM, the GI50 [3, 10] was 14.5 µM and the IC (TGI) [3] was 29.5 µM. The “in vitro activity in words” value [3] was “significant activity in various in vitro cell lines”, the antitumor activity [7, 14] was “only slight antitumor activity” and the toxicity [7, 14] was “toxic at the higher dose levels”. The maximally tolerated dose ([7]; mouse, in vivo) was “a maximally tolerated dose was not achieved”, the “Drug Deaths” value ([8]; 90 mg/kg/dose IP QD × 5, day 3) was 0 and the “Drug Deaths” value ([8]; 134 mg/kg/dose IP QD × 5, day 3) was 1. The “Opt. % T/C” value ([8]; 134 mg/kg/dose IP QD × 5, day 3, optimum on day 9) was 36%, the “Opt. % T/C” value [8, 15] was “Toxic” and the “Drug Deaths” value [8, 15] was 6. For the same compound, the “Opt. % T/C” value ([8]; Ic 90 mg/kg/dose IP QD × 5, day 3, optimum on day 16) was 35% and the IC50 [4] was < 1 µM.

`CCCCCCCCCCCCOC[C@@]12O[C@@H](CN3CCCCCC3)[C@@H](O)[C@@H]1OC(C)(C)O2` [Id, 2,3-O-Isopropylidene-6-deoxy-6-(1-hexamethyleneimino)-1-O-dodecyl-α-L-xylo-2-hexulofuranose] was tested, and the IC50 [1] was < 3 µM, the IC50 [2] was < 3 µM and the CC50 [3] was 10.7 µM. For the same compound, the GI50 [3, 9] was 3.87 µM, the GI50 [3, 10] was 1.82 µM and the IC (TGI) [3] was 4.57 µM. For the same compound, the IC50 [4] was < 1 µM.

`CCCCCCCCCCCCOC[C@@]12O[C@@H](CNCCN3CCOCC3)[C@@H](O)[C@@H]1OC(C)(C)O2` [If, 2,3-O-Isopropylidene-6-deoxy-6-aminoethylmorpholinyl-1-O-dodecyl-α-L-xylo-2-hexulofuranose] was tested, and the IC50 [1] was < 1 µM, the IC50 [2] was < 1 µM and the CC50 [3] was 11 µM. It also gave a GI50 [3, 9] of 4.68 µM, a GI50 [3, 10] of 2.34 µM and an IC (TGI) [3] of 5.13 µM. The IC50 [4] was < 1 µM.

With `CCCCCCCCCCCCOC[C@@]12O[C@@H](CNCCN3CCCCC3)[C@@H](O)[C@@H]1OC(C)(C)O2` [Ig, 2,3-O-Isopropylidene-6-deoxy-6-aminoethylpiperidinyl-1-O-dodecyl-α-L-xylo-2-hexulofuranose] the IC50 [1] was < 3 µM, the IC50 [2] was < 3 µM and the CC50 [3] was 20 µM. The GI50 [3, 9] was 6.8 µM, the GI50 [3, 10] was 3.39 µM and the IC (TGI) [3] was 7.76 µM. For the same compound, the IC50 [4] was < 1 µM.

`CCCCCCCCCCCCOC[C@@]12O[C@@H](C)[C@@H](OCCN3CCCC3)[C@@H]1OC(C)(C)O2` [Il, 2,3-O-Isopropylidene-6-deoxy-1-O-dodecyl-4-O-ethylpyrrolidinyl-α-L-xylo-2-hexulofuranose] was tested, and the IC50 [1] was < 1 µM, the IC50 [2] was < 1 µM and the CC50 [3] was 28.8 µM. The GI50 [3, 9] was 8.68 µM, the GI50 [3, 10] was 4.07 µM and the IC (TGI) [3] was 10.5 µM. The “in vitro activity in words” value [3] was “significant activity” and the IC50 [4] was < 1 µM.

`CCCCCCCCCCCCOC[C@@]12O[C@@H](C)[C@@H](OCCN3CCOCC3)[C@@H]1OC(C)(C)O2` [In, 2,3-O-Isopropylidene-6-deoxy-1-O-dodecyl-4-O-ethylmorpholinyl-α-L-xylo-2-hexulofuranose] was tested, and the IC50 [1] was 10.5 µM, the IC50 [2] was 12.9 µM and the CC50 [3] was 91.2 µM. For the same compound, the GI50 [3, 9] was 74.9 µM, the GI50 [3, 10] was 36.3 µM and the IC (TGI) [3] was 72.4 µM. It also gave an IC50 [4] of 3.8 µM.

In the case of `CCCCCCCCCCCCOC[C@@]12O[C@@H](CN3CCCCCC3)[C@@H](OCCN3CCCC3)[C@@H]1OC(C)(C)O2` [Ir, 2,3-O-Isopropylidene-6-deoxy-1-O-dodecyl-4-O-ethylpyrrolidinyl-6-hexamethyleneimino-α-L-xylo-2-hexulofuranose], the IC50 [1] is reported as < 1 µM, the IC50 [2] is reported as < 1 µM and the CC50 [3] is reported as 21.4 µM. The GI50 [3, 9] was 3.22 µM, the GI50 [3, 10] was 1.78 µM and the IC (TGI) [3] was 8.13 µM. The IC50 [4] was < 1 µM.

With `CCCCCCCCCCCCOC[C@@]12O[C@@H](CN3CCCCCC3)[C@@H](OCCN3CCCCC3)[C@@H]1OC(C)(C)O2` [It, 2,3-O-Isopropylidene-6-deoxy-1-O-dodecyl-4-O-ethylpiperidinyl-6-hexamethyleneimino-α-L-xylo-2-hexulofuranose] the IC50 [1] was < 1 µM, the IC50 [2] was < 1 µM and the CC50 [3] was 36.3 µM. The GI50 [3, 9] was 2.38 µM, the GI50 [3, 10] was 1.35 µM and the IC (TGI) [3] was 7.76 µM. For the same compound, the IC50 [4] was < 1 µM.

`CCCCCCCCCCCCOC[C@@]12O[C@@H](CN3CCCCCC3)[C@@H](OCCCN3CCCCC3)[C@@H]1OC(C)(C)O2` [Iu, 2,3-O-Isopropylidene-6-deoxy-1-O-dodecyl-4-O-propylpiperidinyl-6-hexamethyleneimino-α-L-xylo-2-hexulofuranose] was tested, and the IC50 [1] was < 1 µM, the IC50 [2] was < 1 µM and the CC50 [3] was 28.8 µM. It also gave a GI50 [3, 9] of 0.86 µM, a GI50 [3, 10] of 0.501 µM and an IC (TGI) [3] of 3.72 µM. For the same compound, the IC50 [4] was < 1 µM.

For `CCCCCCCCCCCCOC[C@@]12O[C@@H](CN3CCCCCC3)[C@@H](OCCN3CCOCC3)[C@@H]1OC(C)(C)O2` [Iv, 2,3-O-Isopropylidene-6-deoxy-1-O-dodecyl-4-O-ethylmorpholinyl-6-hexamethyleneimino-α-L-xylo-2-hexulofuranose], the IC50 [1] was < 1 µM, the IC50 [2] was < 1 µM and the CC50 [3] was 44.7 µM. It also gave a GI50 [3, 9] of 3.2 µM, a GI50 [3, 10] of 1.82 µM and an IC (TGI) [3] of 11.5 µM. The IC50 [4] was < 1 µM.

`CCCCCCCCCCCCOC[C@@]12O[C@@H](CN3CCCCCC3)[C@@H](OCCCc3ccccc3)[C@@H]1OC(C)(C)O2` [Iw, 2,3-O-Isopropylidene-6-deoxy-1-O-dodecyl-4-O-phenylpropyl-6-hexamethyleneimino-α-L-xylo-2-hexulofuranose] was tested, and the IC50 [1] was < 1 µM, the IC50 [2] was < 1 µM and the CC50 [3] was 16.6 µM. For the same compound, the GI50 [3, 9] was 4.18 µM, the GI50 [3, 10] was 2.45 µM and the IC (TGI) [3] was 10 µM. For the same compound, the IC50 [4] was < 1 µM.
